Experimental findings from ChEMBL document CHEMBL1134069 (Bioorg Med Chem Lett, 2001) are described below.

Experiment [1] deals with T1, Thymidine kinase, cytosolic (Homo sapiens, UniProt P04183).
T1 sequence (P04183 whole entry): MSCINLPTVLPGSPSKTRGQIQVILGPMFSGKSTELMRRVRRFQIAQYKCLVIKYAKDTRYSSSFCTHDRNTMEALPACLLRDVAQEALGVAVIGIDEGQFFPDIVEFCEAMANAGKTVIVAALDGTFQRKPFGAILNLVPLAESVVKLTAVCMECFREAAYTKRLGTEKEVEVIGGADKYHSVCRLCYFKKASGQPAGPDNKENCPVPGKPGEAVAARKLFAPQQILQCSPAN
Nature of the experiment: Inhibitory concentration against cytosolic thymidine kinase (TK-1).

In experiment [2] the target is T2, Thymidine kinase (Human herpesvirus 1 (strain SC16) (HHV-1) (Human herpes simplex virus1), UniProt P06479).
T2 sequence (P06479 whole entry): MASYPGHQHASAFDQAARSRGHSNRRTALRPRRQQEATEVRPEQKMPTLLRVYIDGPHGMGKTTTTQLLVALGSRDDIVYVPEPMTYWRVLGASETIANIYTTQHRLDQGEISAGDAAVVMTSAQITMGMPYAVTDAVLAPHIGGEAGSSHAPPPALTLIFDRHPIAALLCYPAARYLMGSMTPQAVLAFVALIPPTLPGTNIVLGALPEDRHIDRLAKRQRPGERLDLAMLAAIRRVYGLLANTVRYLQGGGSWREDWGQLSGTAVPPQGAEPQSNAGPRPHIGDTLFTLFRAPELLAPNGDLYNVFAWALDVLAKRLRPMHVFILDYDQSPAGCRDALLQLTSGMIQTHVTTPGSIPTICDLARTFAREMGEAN
Nature of the experiment: Inhibitory concentration against Herpes simplex virus type 1 thymidine kinase(HSV-1 TK). The arrangement: species or system Herpes simplex virus (type 1 / strain SC16).

Experiment [3] has as its target T3, Thymidine kinase (Varicella-zoster virus (strain Dumas) (HHV-3) (Human herpesvirus 3), UniProt P09250).
T3 sequence (P09250 whole entry): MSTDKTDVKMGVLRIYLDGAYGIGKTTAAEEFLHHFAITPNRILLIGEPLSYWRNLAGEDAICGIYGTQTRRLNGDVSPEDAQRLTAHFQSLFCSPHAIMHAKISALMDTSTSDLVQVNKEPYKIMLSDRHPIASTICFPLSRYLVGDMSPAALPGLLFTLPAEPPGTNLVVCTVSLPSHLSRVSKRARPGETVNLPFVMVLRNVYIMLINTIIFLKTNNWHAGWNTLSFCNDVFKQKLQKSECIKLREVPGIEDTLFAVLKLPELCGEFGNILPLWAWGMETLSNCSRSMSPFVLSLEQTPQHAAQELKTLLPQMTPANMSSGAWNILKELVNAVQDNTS
Nature of the experiment: Inhibitory concentration against Varicella- zoster virus thymidine kinase(VZV TK). The arrangement: species or system Human alphaherpesvirus 3.

Experiment [4] deals with T4, Thymidine kinase 2, mitochondrial (Homo sapiens, UniProt O00142).
T4 sequence (O00142 whole entry): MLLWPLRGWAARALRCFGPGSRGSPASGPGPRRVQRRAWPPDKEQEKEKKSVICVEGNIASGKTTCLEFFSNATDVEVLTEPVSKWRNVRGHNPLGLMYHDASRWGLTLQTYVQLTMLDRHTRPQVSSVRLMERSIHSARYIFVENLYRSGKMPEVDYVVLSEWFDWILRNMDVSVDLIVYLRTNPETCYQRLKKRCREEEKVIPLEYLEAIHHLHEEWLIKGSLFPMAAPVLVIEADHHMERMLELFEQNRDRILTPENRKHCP
Nature of the experiment: Inhibitory concentration against mitochondrial thymidine kinase (TK-2).

Another experiment deals with T5, Deoxynucleoside kinase (Drosophila melanogaster, UniProt Q9XZT6).
T5 sequence (Q9XZT6 whole entry): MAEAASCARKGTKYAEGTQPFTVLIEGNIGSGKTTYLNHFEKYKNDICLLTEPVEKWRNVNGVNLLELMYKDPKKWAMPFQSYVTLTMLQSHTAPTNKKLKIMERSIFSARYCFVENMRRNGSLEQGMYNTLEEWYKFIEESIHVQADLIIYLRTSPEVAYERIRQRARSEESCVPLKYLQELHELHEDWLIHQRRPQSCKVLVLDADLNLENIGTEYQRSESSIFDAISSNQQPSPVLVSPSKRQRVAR
Briefly: Inhibitory concentration against Drosophila melanogaster deoxyribonucleoside kinase (Dm-dNK).

As to `CCCCCCCCO[C@H]1[C@H](O)[C@@H](CO)O[C@H]1n1ccc(N)nc1=O`, the IC50 (in experiment [1]; on Thymidine kinase [2]; at Thymidine kinase [3]; in experiment [4]) was above 1000 µM in each case.

As for `COCC(=O)O[C@H]1[C@H](O)[C@@H](CO)O[C@H]1n1cc(/C=C/Br)c(=O)[nH]c1=O`, the IC50 in experiment [1] was above 1000 µM; on Thymidine kinase [2], 84 µM; on Thymidine kinase [3], 35 µM; in experiment [4], 402 µM.

Turning to `CCCCCCCCCCCC(=O)O[C@H]1[C@H](O)[C@@H](CO)O[C@H]1n1cc(C)c(=O)[nH]c1=O`, the IC50 in experiment [1] was above 1000 µM; against Thymidine kinase [2] it was above 1000 µM; against Thymidine kinase [3], above 1000 µM; in experiment [4] it was 28 µM; at Deoxynucleoside kinase, above 1000 µM.

Turning to `Cc1cn([C@@H]2O[C@H](CO)[C@@H](O)[C@H]2OCc2ccccc2)c(=O)[nH]c1=O`, the IC50 was above 1000 µM in experiment [1]; above 1000 µM against Thymidine kinase [2]; above 1000 µM on Thymidine kinase [3]; 801 µM in experiment [4]; above 1000 µM against Deoxynucleoside kinase.

Regarding `CCCCC(=O)O[C@H]1[C@H](O)[C@@H](CO)O[C@H]1n1cc(C)c(=O)[nH]c1=O`, the IC50 (in experiment [1]; against Thymidine kinase [2]; against Thymidine kinase [3]; in experiment [4]; against Deoxynucleoside kinase) was above 1000 µM throughout.

In the case of `Cc1cn([C@@H]2O[C@H](CO)[C@@H](O)[C@@H]2O)c(=O)[nH]c1=O`, the 50% inhibitory concentration (IC50) in experiment [1] was above 1000 µM; at Thymidine kinase [2], 24 µM; against Thymidine kinase [3] it was 17 µM; in experiment [4], 285 µM; on Deoxynucleoside kinase it was 65 µM.

On to `CCCCCCCCCC(=O)O[C@H]1[C@H](O)[C@@H](CO)O[C@H]1n1cc(/C=C/Br)c(=O)[nH]c1=O`, for which the half-inhibitory concentration (IC50) in experiment [1] is above 1000 µM; against Thymidine kinase [2] it was above 1000 µM; against Thymidine kinase [3], 845 µM; in experiment [4], 6.8 µM; at Deoxynucleoside kinase, 163 µM.

For the molecule `CCCCCCCCCC(=O)O[C@H]1[C@H](O)[C@@H](CO)O[C@H]1n1cc(C)c(=O)[nH]c1=O`, the IC50 in experiment [1] was above 1000 µM; against Thymidine kinase [2], above 1000 µM; at Thymidine kinase [3] it was above 1000 µM; in experiment [4], 27 µM; against Deoxynucleoside kinase, 872 µM.

Turning to `CCCCCCCC(=O)O[C@H]1[C@H](O)[C@@H](CO)O[C@H]1n1cc(/C=C/Br)c(=O)[nH]c1=O`, the 50% inhibitory concentration (IC50) in experiment [1] was above 1000 µM; against Thymidine kinase [2], above 1000 µM; at Thymidine kinase [3], 718 µM; in experiment [4], 6.3 µM; against Deoxynucleoside kinase it was 178 µM.

`CCCCCCCCO[C@H]1[C@H](O)[C@@H](CO)O[C@H]1n1cc(C)c(=O)[nH]c1=O`: the 50% inhibitory concentration (IC50) is above 1000 µM in experiment [1]; above 1000 µM against Thymidine kinase [2]; above 1000 µM against Thymidine kinase [3]; 120 µM in experiment [4]; above 1000 µM against Deoxynucleoside kinase.

Consider `Nc1ccn([C@@H]2O[C@H](CO)[C@@H](O)[C@@H]2O)c(=O)n1` [CYTARABINE], for which the half-inhibitory concentration (IC50) (in experiment [1]; on Thymidine kinase [2]; against Thymidine kinase [3]; in experiment [4]) was above 1000 µM throughout.

With `O=c1[nH]c(=O)n(C2O[C@H](CO)[C@@H](O)[C@@H]2O)cc1/C=C\Br` (some centres not stated), the IC50 in experiment [1] is above 500 µM; against Thymidine kinase [2], 4.3 µM; against Thymidine kinase [3] it was 3.3 µM; in experiment [4], 43 µM; against Deoxynucleoside kinase, 31.6 µM.
